In patent publication US5220064A, “Substituted 4'-hydroxyphenylacetic acid derivatives having antiinflammatory and analgesic activity” (Warner-Lambert Company, priority 1989, dated 1993):

Tested on: mice
Assay: acetic acid-induced stretching/writhing test in mice (based on Koster et al.)
Type: in vivo
Conditions: Mus musculus, sc; subcutaneous, 30 minutes before peritoneal acetic acid (100 mg/kg); mice fasted 24 hours; 15 minute observation; read-out: ED50 (amount producing the desired inhibition of stretching or "writhing" in 50 percent of a population)
From the text: Illustrative examples of the activity for use as described above for the novel compounds of the present invention are shown as the compound of the noted examples described in the following material when administered in a test based on that of Koster et al. [Fed. Proc., Vol. 18 (1959), p. 412] in which the peritoneal injection of acetic acid to mice provokes repeated stretching and twisting movements which persist for more than six hours. Analgesics prevent or suppress these syndromes which are considered to be an exteriorization of a diffuse abdominal pain. A 1% solution of acetic acid in water is used at a dose of 0.01 ml/g or 100 mg/kg of acetic acid to release the syndrome.
The compound to be tested is subcutaneously administered 30 minutes before the acetic acid injection and the mice are fasted 24 hours before the start of the test. The stretching for the mice is observed and totaled for each mouse in a 15 minute observation period starting just after the acetic acid injection. The results are expressed as mg/kg which amount produces the desired inhibition of stretching or "writhing" in 50 percent of a population.

Compound | ED50
CCCCCCCCNC(=O)Cc1ccc(O)c(Cl)c1 [Example 1, Benzeneacetamide, 3-Chloro-4-hydroxy-N-octyl-] | 6.1 mg/kg
CCCCCCCCNC(=O)Cc1ccc(O)c(Br)c1 [Example 2, Benzeneacetamide, 3-Bromo-4-hydroxy-N-octyl-] | 2.5 mg/kg
CCCCCCCCNC(=O)Cc1ccc(O)c(F)c1 [Example 3, Benzeneacetamide, 3-Fluoro-4-hydroxy-N-octyl-] | 3.2 mg/kg
